# Measured values as given in PMC8906060 (Antiviral Research, 2022).
# Columns and labels:
# SARS-CoV-2 3CLpro = SARS-CoV-2 3CLpro (Severe acute respiratory syndrome coronavirus 2, UniProt P0DTD1); assay type: biochemical; conditions: read-out: 3CLpro IC50
# 3CLpro = 3CLpro (Severe acute respiratory syndrome coronavirus 2, UniProt P0DTD1); assay type: biochemical, SARS-CoV-2
# SARS-CoV-2 = assay: microbe, parasite or virus in culture; assay type: cell-based; conditions: Severe acute respiratory syndrome coronavirus 2
# COVID-19 = COVID-19 patients, ref Beigel et al., 2020, cited from earlier work
structure (smiles),measurement,setting,value
COC(=O)c1c(C)[nH]c(C(=O)COn2nnc3ccc(S(=O)(=O)N(C)C)cc32)c1C [Compound 12],IC50,SARS-CoV-2 3CLpro,1320 nM
same,IC50,3CLpro; read-out: FRET IC50,350 nM
COc1ccc(-c2nc(NC(=O)c3ccc(C)c(F)c3)n[nH]2)cc1OC [Compound 30],FRET IC50,3CLpro,high fluorescent signals
CCC(CC)COC(=O)[C@H](C)N[P@](=O)(OC[C@H]1O[C@@](C#N)(c2ccc3c(N)ncnn23)[C@H](O)[C@@H]1O)Oc1ccccc1 [Remdesivir],EC50,SARS-CoV-2,1840 nM
same,recovery,COVID-19; reduced from 15 days,11 days
same,effect on mortality,COVID-19,no significant effect
